Assay results reported in PubChem BioAssay (NCI).
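Tested at 5 concentrations; 48 h exposure; 96-well plates; endpoints linearly interpolated, else capped at highest concentration. The concentration for 50% growth inhibition is given as GI50. TGI: total growth inhibition.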

Assays:
Assay in all cases: NCI tumour cell line growth inhibition, 48 h
T-47D breast = test system: T-47D breast
HCT-15 colon = test system: HCT-15 colon
ACHN renal = test system: ACHN renal
SF-539 CNS = test system: SF-539 CNS
UO-31 renal = test system: UO-31 renal
SW-620 colon = test system: SW-620 colon
SK-MEL-2 melanoma = test system: SK-MEL-2 melanoma
OVCAR-5 ovarian = test system: OVCAR-5 ovarian
U251 CNS = test system: U251 CNS
CAKI-1 renal = test system: CAKI-1 renal
SNB-75 CNS = test system: SNB-75 CNS
SR leukemia = test system: SR leukemia
SF-268 CNS = test system: SF-268 CNS
HS 578T breast = test system: HS 578T breast
HCT-116 colon = test system: HCT-116 colon
OVCAR-3 ovarian = test system: OVCAR-3 ovarian
EKVX NSCLC = test system: EKVX NSCLC
SK-OV-3 ovarian = test system: SK-OV-3 ovarian
SF-295 CNS = test system: SF-295 CNS
HCC-2998 colon = test system: HCC-2998 colon
M14 melanoma = test system: M14 melanoma
MALME-3M melanoma = test system: MALME-3M melanoma
HT29 colon = test system: HT29 colon
786-0 renal = test system: 786-0 renal
TK-10 renal = test system: TK-10 renal
NCI-H522 lung = test system: NCI-H522 lung
SK-MEL-28 melanoma = test system: SK-MEL-28 melanoma
RXF 393 renal = test system: RXF 393 renal
MCF7 breast = test system: MCF7 breast
UACC-62 melanoma = test system: UACC-62 melanoma
OVCAR-4 ovarian = test system: OVCAR-4 ovarian
A549 NSCLC = test system: A549 NSCLC
COLO 205 colon = test system: COLO 205 colon
UACC-257 melanoma = test system: UACC-257 melanoma
LOX IMVI melanoma = test system: LOX IMVI melanoma
PC-3 prostate = test system: PC-3 prostate
MDA-MB-231 breast = test system: MDA-MB-231 breast
DU-145 prostate = test system: DU-145 prostate
HOP-62 NSCLC = test system: HOP-62 NSCLC
A498 renal = test system: A498 renal
SK-MEL-5 melanoma = test system: SK-MEL-5 melanoma
MDA-MB-435 = test system: MDA-MB-435
BT-549 breast = test system: BT-549 breast
NCI-H460 lung = test system: NCI-H460 lung
KM12 colon = test system: KM12 colon
HOP-92 NSCLC = test system: HOP-92 NSCLC

## CCNCCNc1cc(-c2ccc(Cl)c(Cl)c2)c(C#N)c2nc3ccccc3n12
T-47D breast
  GI50: 1430 nM
  TGI: 3200 nM
HCT-15 colon
  GI50: 629 nM
  TGI: 1920 nM
ACHN renal
  GI50: 1390 nM
  TGI: 2870 nM
SF-539 CNS
  GI50: 224 nM
  TGI: 580 nM
UO-31 renal
  GI50: 1600 nM
  TGI: 3120 nM
SW-620 colon
  GI50: 578 nM
  TGI: 2070 nM
SK-MEL-2 melanoma
  GI50: 1580 nM
  TGI: 3070 nM
OVCAR-5 ovarian
  GI50: 1870 nM
  TGI: 3550 nM
U251 CNS
  GI50: 757 nM
  TGI: 2150 nM
CAKI-1 renal
  GI50: 1560 nM
  TGI: 2900 nM
SNB-75 CNS
  GI50: 1460 nM
  TGI: 2960 nM
SR leukemia
  GI50: 287 nM
  TGI: > 100000 nM
SF-268 CNS
  GI50: 1710 nM
  TGI: 3330 nM
HS 578T breast
  GI50: 1900 nM
  TGI: 4430 nM
HCT-116 colon
  GI50: 278 nM
  TGI: 1080 nM
OVCAR-3 ovarian
  GI50: 248 nM
  TGI: 580 nM
EKVX NSCLC
  GI50: 1750 nM
  TGI: 3330 nM
SK-OV-3 ovarian
  GI50: 1790 nM
  TGI: 3230 nM
SF-295 CNS
  GI50: 1810 nM
  TGI: 3240 nM
HCC-2998 colon
  GI50: 1690 nM
  TGI: 3210 nM
M14 melanoma
  GI50: 1720 nM
  TGI: 3240 nM
MALME-3M melanoma
  GI50: 1760 nM
  TGI: 3410 nM
HT29 colon
  GI50: 369 nM
  TGI: 1420 nM
786-0 renal
  GI50: 1660 nM
  TGI: 3180 nM
TK-10 renal
  GI50: 1690 nM
  TGI: 3110 nM
NCI-H522 lung
  GI50: 1320 nM
  TGI: 2800 nM
SK-MEL-28 melanoma
  GI50: 1900 nM
  TGI: 3540 nM
RXF 393 renal
  GI50: 1500 nM
  TGI: 2940 nM
MCF7 breast
  GI50: 1010 nM
  TGI: 2460 nM
UACC-62 melanoma
  GI50: 1820 nM
  TGI: 3560 nM
OVCAR-4 ovarian
  GI50: 1230 nM
  TGI: 2530 nM
A549 NSCLC
  GI50: 1430 nM
  TGI: 3010 nM
COLO 205 colon
  GI50: 421 nM
  TGI: 1630 nM
UACC-257 melanoma
  GI50: 1890 nM
  TGI: 3520 nM
LOX IMVI melanoma
  GI50: 1210 nM
  TGI: 2530 nM
PC-3 prostate
  GI50: 1660 nM
  TGI: 3190 nM
MDA-MB-231 breast
  GI50: 1210 nM
  TGI: 2710 nM
DU-145 prostate
  GI50: 1440 nM
  TGI: 2760 nM
HOP-62 NSCLC
  GI50: 1620 nM
  TGI: 3180 nM
A498 renal
  GI50: 1380 nM
  TGI: 2880 nM
SK-MEL-5 melanoma
  GI50: 1710 nM
  TGI: 3120 nM
MDA-MB-435
  GI50: 1700 nM
  TGI: 3140 nM
BT-549 breast
  GI50: 1540 nM
  TGI: 2900 nM
NCI-H460 lung
  GI50: 485 nM
  TGI: 1910 nM
KM12 colon
  GI50: 1600 nM
  TGI: 3150 nM
HOP-92 NSCLC
  GI50: 1670 nM
  TGI: 3280 nM
